Measured values: article PMC9485059 (iScience, 2022)

Assays:
BAK [1] = molecular target: T1, BAK (Homo sapiens, UniProt Q16611); experiment: ligand-based 1D-NMR, […] 2D-NMR titration, competitive TR-FRET, nanoDSF; type: binding
T1 sequence (Q16611 15-186): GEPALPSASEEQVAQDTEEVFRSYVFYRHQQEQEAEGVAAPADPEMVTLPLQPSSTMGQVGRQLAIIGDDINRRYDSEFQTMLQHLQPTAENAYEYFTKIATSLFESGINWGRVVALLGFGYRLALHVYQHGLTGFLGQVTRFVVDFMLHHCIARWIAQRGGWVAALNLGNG

BAK [2] = molecular target: T1, BAK; experiment: ligand-based 1D-NMR; type: binding

Row | IC50 (BAK [1]) [µM] | IC50 (BAK [2]) [µM] | SMILES
1 | 1970 | – | Cc1ccc(C)c2sc(N)nc12 [A3]
2 | – | 570 | Cc1ccc(Cl)c2sc(N)nc12 [H6, SJ572946]
